Data reported in patent US20070060651A1, “Compositions and methods for improving functional vascular cellular survival integrity and reducing apoptosis in ischemia” (NESTEC S.A., priority 2005, published 2007).

What was measured:
[1] = tested on: growth factors and anti-inflammatory proteins; assay: Expression of growth factors and anti-inflammatory proteins in dogs on supplemental arginine; format: in vivo, dog; settings: dietary supplementation
[2] = tested on: transient cerebral ischemia in an ovariectomized rat model; assay: Cerebral ischemia-induced apoptosis by TUNEL staining after tMCA occlusion; format: in vivo; settings: average of three brain regions, normalized to DAPI total cells; vs control; FIG. 3
[3] = tested on: transient cerebral ischemia in an ovariectomized rat model; assay: Ischemic lesion (infarct) volume by TTC staining after transient middle cerebral artery (tMCA) occlusion; format: in vivo; settings: all rats; vs control diet; 60 min tMCA occlusion, 24 hours reperfusion; FIG. 1
Method: Animals. Female Charles Rivers Sprague-Dawley rats (250 g, Wilmington, Mass.) were acclimatized to animal facilities three days prior to surgery with a 12 hour light-dark cycle. Bilateral ovariectomy was performed 2 weeks before diet feeding began. Four weeks after the start of diet feeding, transient middle cerebral artery (tMCA) occlusion under anesthesia was performed following intraperitoneal (i.p.) injection of ketamine (60 mg/kg) and xylazine (10 mg/kg).
Diet and Hormone Administration. Fourteen to 15 rats per group were randomly assigned to one of five treatment groups. These groups were as follows: […]
All diets were fed ad libitum to the rats for four weeks. […] Also once per week, body weights and food intake were determined. […]
Middle cerebral artery occlusion and samples preparation. […] Rectal temperature was monitored and maintained between 36.5 and 37° C. with a heating pad throughout the procedure. […]
Some animals were eliminated from the study during the protocol. The number of animals quantified for lesion volume ranged from 12 to 15 per group.
Statistical methods. Results were analyzed with one-way analysis of variance (ANOVA) using Prism software(Graphpad Inc; San Diego, Calif.). The significance of differences among groups was determined by one-way ANOVA followed by Tukey's multiple comparison tests. All values were expressed as mean +/−SEM.

SMILES | expression of multiple growth factors and anti-inflammatory proteins [1] | TUNEL staining / TUNEL-positive cell counts (apoptosis), in words [2] | effect on infarct size / mean infarct volume (in words) [3]
N=C(N)NCCC[C@H](N)C(=O)O [arginine, L-arginine] | increased expression of multiple growth factors and anti-inflammatory proteins in a dose-dependent manner | – | –
C[C@]12CC[C@@H]3c4ccc(O)cc4CC[C@H]3[C@@H]1CC[C@@H]2O [estradiol, 17 β-estradiol] | – | substantial reduction in TUNEL staining | reduced infarct size
